This is an account of results in patent US12378220B2, “WNT signaling pathway inhibitors for treatments of disease” (University of Maryland, Baltimore, priority 2016, dated 2025).

The test system of the assay is Wnt/β-catenin pathway. The experiment in a line: dual-luciferase TCF/LEF reporter assay, LiCl-activated, HEK293 cells. The format is cell-based. Here is the method:
Lithium chloride (LiCl), which has been previously established as an activator of the Wnt/β-catenin pathway through its direct and indirect effects on GSK3β was used for pathway activation. The inhibition of the Wnt/β-catenin pathway by a compound may be determined after its incubation with cells for 24 hours.
The assay provided herein is a dual-luciferase assay to measure Wnt/β-catenin pathway activation using a TCF/LEF responsive reporter construct similar to that described previously (Thorne et al., 2010).

The mark [1] stands for this setting: Homo sapiens, HEK293, 24 h, At 1 μM concentration, remaining Wnt signaling activity, read-out: RLU % (Relative Light Units in reporter gene assays).
Where [2] appears, read: Homo sapiens, HEK293, Table 3, values in nM, read-out: IC50.
Where [3] appears, read: Homo sapiens, HEK293, Table 6, read-out: IC50 (nM) or remaining activity at 1 μM: IC50.

SMILES strings stand for the structures. Where two headings read alike, the source gives them in different places.

As for `Cc1ccccc1-n1nnc(C(=O)Nc2ccc3ccccc3c2)c1C` [YW1130, 5-Methyl-N-(naphthalen-2-yl)-1-(o-tolyl)-1H-1,2,3-triazole-4-carboxamide], the activity at 1 µM under setting [1] was 19.7%. The half-inhibitory concentration (IC50) under setting [2] stood at 471 nM.

For `Cc1ccc(-n2nnc(C(=O)Nc3ccc4ccccc4n3)c2C)cc1` [Compound 27, 5-Methyl-N-(quinolin-2-yl)-1-(p-tolyl)-1H-1,2,3-triazole-4-carboxamide], the activity at 1 µM (Homo sapiens, HEK293, Table 6, @ 1 μM, read-out: IC50 (nM) or remaining activity at 1 μM: remaining activity) was 56.4 ± 2%. In the case of `Cc1ccc(-n2nnc(C(=O)Nc3ccccn3)c2C)cc1` [Compound 20, 5-Methyl-N-(pyridin-2-yl)-1-(p-tolyl)-1H-1,2,3-triazole-4-carboxamide], the activity at 1 µM (Homo sapiens, HEK293, Table 5, @ 1 μM, read-out: IC50 (nM) or remaining activity at 1 μM: remaining activity) stood at 100%. With `CC(=O)c1ccccc1-n1nnc(C(=O)Nc2ccc3ccccc3n2)c1C` [YW1181, 1-(2-Acetylphenyl)-5-methyl-N-(quinolin-2-yl)-1H-1,2,3-triazole-4-carboxamide], under setting [1], the activity at 1 µM turned out to be 18.1%. In addition, the half-inhibitory concentration (IC50) under setting [2] stood at 814 nM.

For `Cc1ccc(-n2c(C)cc(C(=O)Nc3nc(-c4ccccc4)cs3)c2C)cc1` [YW1114, 2,5-Dimethyl-N-(4-phenylthiazol-2-yl)-1-(p-tolyl)-1H-pyrrole-3-carboxamide], the activity at 1 µM under setting [1] was 34.6%. Under setting [2], the IC50 came out at 379 nM. Taken in the same sequence, the figures for `Cc1cccc(-n2nnc(C(=O)Nc3ccc4ccccc4n3)c2C)c1C` [YW1170, 1-(2,3-Dimethylphenyl)-5-methyl-N-(quinolin-2-yl)-1H-1,2,3-triazole-4-carboxamide] were 17.8% and 567 nM. `Cc1ccc(-n2nnc(C(=O)Nc3nc(-c4ccccc4)c(-c4ccccc4)s3)c2C)cc1` [Compound 22, N-(4,5-diphenylthiazol-2-yl)-5-methyl-1-(p-tolyl)-1H-1,2,3-triazole-4-carboxamide]: the IC50 (Homo sapiens, HEK293, Table 5, read-out: IC50 (nM) or remaining activity at 1 μM: IC50) was 1000 nM.

With `COc1ccccc1-n1nnc(C(=O)Nc2ccc3ccccc3n2)c1C` [Compound 35, 1-(2-Methoxyphenyl)-5-methyl-N-(quinolin-2-yl)-1H-1,2,3-triazole-4-carboxamide], the half-maximal inhibitory concentration (IC50) under setting [3] amounted to 88 nM. As for `Cc1ccccc1-n1nnc(C(=O)Nc2nc3ccccc3s2)c1C` [Compound 29, N-(benzo[d]thiazol-2-yl)-5-methyl-1-(o-tolyl)-1H-1,2,3-triazole-4-carboxamide], the IC50 (Table 7, read-out: IC50) amounted to 34 nM. As for `Cc1c(C(=O)Nc2ccc3ccccc3n2)nnn1-c1ccccc1-c1ccccc1` [Compound 38, 1-([1,1′-biphenyl]-2-yl)-5-methyl-N-(quinolin-2-yl)-1H-1,2,3-triazole-4-carboxamide], under setting [3], the half-maximal inhibitory concentration (IC50) came out at 52000 nM. For `Cc1c(C(=O)Nc2ccc3ccccc3n2)nnn1-c1cccc(Cl)c1` [YW1173, 1-(3-Chlorophenyl)-5-methyl-N-(quinolin-2-yl)-1H-1,2,3-triazole-4-carboxamide], the activity at 1 µM under setting [1] came out at 26.3%. For the same compound, the IC50 under setting [2] stood at 731 nM. On to `Cc1c(C(=O)Nc2ccc3ccccc3n2)nnn1-c1ccc(F)cc1[N+](=O)[O-]` [Compound 41, 1-(4-Fluoro-2-nitrophenyl)-5-methyl-N-(quinolin-2-yl)-1H-1,2,3-triazole-4-carboxamide], for which, under setting [3], the IC50 worked out at 5000 nM. On the same count and under the same terms, to `Cc1c(C(=O)Nc2ccc3ccccc3n2)nnn1-c1ccccc1F` [Compound 33, 1-(2-Fluorophenyl)-5-methyl-N-(quinolin-2-yl)-1H-1,2,3-triazole-4-carboxamide] belongs 6.5 nM; to `CC(=O)c1ccccc1-n1nnc(C(=O)Nc2ccc3ccccc3n2)c1C` [Compound 39, 1-(2-Acetylphenyl)-5-methyl-N-(quinolin-2-yl)-1H-1,2,3-triazole-4-carboxamide], 814 nM.

For `Cc1c(C(=O)Nc2ccc3ccccc3n2)nnn1-c1cccc2ccccc12` [Compound 43, 5-Methyl-1-(naphthalen-1-yl)-N-(quinolin-2-yl)-1H-1,2,3-triazole-4-carboxamide], the half-inhibitory concentration (IC50) under setting [3] worked out at 4000 nM. As for `Cc1ccc(-n2nnc(C(=O)Nc3ccccn3)c2C)cc1` [YW1119, 5-Methyl-N-(pyridin-2-yl)-1-(p-tolyl)-1H-1,2,3-triazole-4-carboxamide], the activity at 1 µM under setting [1] stood at 106%.

The IC50 is the concentration at which inhibition is half-maximal.
